Data from publication PMC5216877, “Exploring conformational equilibria of a heterodimeric ABC transporter” (eLife, 2017).
Read-outs that look alike come from different tables or passages of the source. One block for each molecule: values may come before it.

Experiments:
TM287/288 [1] = molecular target: T1, TM287/288 (Thermotoga maritima, UniProt Q9WYC3+Q9WYC4, C28S/C496S/C519S/C558S/C73S); assay: Inhibition of ATPase activity of TM287/288 by vanadate and nucleotides; format: biochemical; settings: for IC50: 500 µM ATP; for Ki: calculated from IC50 and Km
Method: Nucleotide binding and hydrolysis follow a complex mechanism in heterodimeric ABC exporters, due to the existence of a degenerate and a consensus site in the NBDs. […] Using the relation IC50=Ki(1+[S]/Km), Ki values for the respective nucleotides were determined (Table 2). […] It is well established that ATPγS is slowly hydrolyzed by ATPases, as for example the F1Fo-ATPase ([Turina and Capaldi, 1994]). […] It is reasonable to assume that TM287/288 is as well capable of slow ATPγS hydrolysis. In addition, we tested whether TM287/288 hydrolyzes AMP-PNP. In contrast to ATPγS, hydrolysis of AMP-PNP releases Pi, which can be detected by the molybdate/malachite green method.
(§1) in which f corresponds to the ATPase activity at the respective inhibitor concentration divided by the ATPase activity in the absence of inhibitor normalized to 100%, y0 corresponds to the residual activity at infinite inhibitor concentration, a corresponds to the maximal degree of inhibition (a+y0=100%) and x corresponds to the inhibitor concentration.
(§2) Ki values were calculated according to the formula Ki=IC50/(1+[S]/Km)
(§3) IC50 and Km values were obtained from data fitting as outlined above.
(§4) Standard errors for the Ki values were calculated by error propagation: σKi = (Km/Km+[S])^2 σIC502+ ([S]IC50/(Km+[S])^2)^2 σKm2
(§5) in which the σIC50 and σKm are standard errors obtained from data fitting in SigmaPlot and σKi is the standard error for Ki .

TM287/288 [2] = assay: DEER two-Gaussian fit of IF/OF populations, wildtype TM287/288; set-up: species or system Thermotoga maritima; settings: estimated errors 10%
Method: All nucleotides and nucleotide analogs used in this study were added at saturating conditions well above their Ki values (Table 2). […] Therefore, the IF/OF fractions detected in the sample reflect the average life time that the nucleotide-bound transporter spends in either conformation. To rank the nucleotides in terms of their ability to support the transition to the OF conformation, we used three representative pairs in the wildtype transporter and the E-to-Q mutant: one in the extracellular region (50^TM287/271^TM287), one in the intracellular region (131^TM288/248^TM288) of the TMDs, and one in the NBDs (460^TM287/363^TM288) for which the distance peaks corresponding to the two states were distinguishable. A two-Gaussian fit of the DEER traces was performed to obtain the area of the corresponding IF and OF distance peaks (Figure 5—source data 1). The rank of nucleotides with respect to increasing fractions of the OF populations (Figure 5A) was: ADP-Mg ≈ AMP-PNP-Mg < ATP-EDTA < ATPγS-Mg < ATP-Mg < ATP-Vi-Mg. The order is similar for the wildtype and E-to-Q mutant transporter. However, the OF state is in general more populated in the E-to-Q mutant, which is best explained by an alteration of the energy profile caused by the mutation. This notion is best appreciated for ATP-EDTA and ATP-Mg, which could trigger an almost complete switch in the molecular ensemble of the E-to-Q mutant (Figure 5B).
The labeling efficiency of the double cysteine mutants of the transporters solubilized in detergent was measured at 25°C using an X-band Miniscope 400 EPR spectrometer (Magnettech by Freiberg Instrument). Samples were loaded into glass capillaries with the inner diameter of 0.9 mm and spectra were measured with 14 mT field sweep, 0.15 mT modulation amplitude, 2.5 mW microwave power. The calculated spin labeling efficiencies of the twelve mutants ranged between 70–90% (the second integral of the EPR spectra was calculated with the software available at spintoolbox.com). The high degree of labeling is correlated with the 0.3–0.4 modulation depths of all Q-band DEER traces presented. For DEER measurements, 10% v/v D8- glycerol was added prior to snap freezing. The range of final protein concentrations was 12 to 41 µM. 40 µL of sample were loaded in quartz tubes with 3 mm outer diameter. If not stated differently, samples were incubated at 25°C for 10 min (TM287/288 and MsbA) or 15 min (BmrCD) and snap frozen in liquid nitrogen. To study the effect of high physiological temperatures on the frozen dynamics of the transporter, samples were loaded in the quartz tubes, incubated for 3 min at 80°C on a heat block and snap frozen in a mixture of isopentane and liquid nitrogen to minimize the freezing time. […] The nucleotide analogs AMP-PNP-Mg and ATPγS-Mg (2.5 mM) were also prepared in the presence of 2.5 mM MgCl2. In case of ADP-Mg, 2.5 mM ADP and 2.5 mM MgCl2 were added.
Double electron-electron resonance (DEER) measurements were performed at 50 K on a Bruker ELEXSYS E580Q-AWG (arbitrary wave generator) dedicated pulse Q-band spectrometer equipped with a 150 W TWT amplifier. A 4-pulse DEER sequence with rectangular, non-selective observer and pump pulses of 14 or 16 ns length (depending on the available B1 at the sample) with 100 MHz frequency separation was used ([Polyhach et al., 2012]). Due to the coherent nature of the AWG generated pulses, a four-step phase cycling (0 – π/2 - π – 3/2π) of the pump π pulse was performed to remove unwanted effects of running echoes from the DEER trace. The evaluation of the DEER data was performed using DeerAnalysis2015 ([Jeschke et al., 2006]). The background of the primary DEER traces was corrected using stretched exponential functions with homogeneous dimensions of 1.5 to 3 for different samples. A model-free Tikhonov regularization was used to extract distance distributions from the background corrected form factors. […]

BmrCD = molecular target: T2, BmrCD (Bacillus subtilis, UniProt O07549+O07550, C154A/C256A/C351A); assay: Inhibition of ATPase activity of BmrCD by nucleotide analogs; format: biochemical
T2 construct: made in house; host or cells: E. coli MC1061
T2 sequence (O07550 whole entry): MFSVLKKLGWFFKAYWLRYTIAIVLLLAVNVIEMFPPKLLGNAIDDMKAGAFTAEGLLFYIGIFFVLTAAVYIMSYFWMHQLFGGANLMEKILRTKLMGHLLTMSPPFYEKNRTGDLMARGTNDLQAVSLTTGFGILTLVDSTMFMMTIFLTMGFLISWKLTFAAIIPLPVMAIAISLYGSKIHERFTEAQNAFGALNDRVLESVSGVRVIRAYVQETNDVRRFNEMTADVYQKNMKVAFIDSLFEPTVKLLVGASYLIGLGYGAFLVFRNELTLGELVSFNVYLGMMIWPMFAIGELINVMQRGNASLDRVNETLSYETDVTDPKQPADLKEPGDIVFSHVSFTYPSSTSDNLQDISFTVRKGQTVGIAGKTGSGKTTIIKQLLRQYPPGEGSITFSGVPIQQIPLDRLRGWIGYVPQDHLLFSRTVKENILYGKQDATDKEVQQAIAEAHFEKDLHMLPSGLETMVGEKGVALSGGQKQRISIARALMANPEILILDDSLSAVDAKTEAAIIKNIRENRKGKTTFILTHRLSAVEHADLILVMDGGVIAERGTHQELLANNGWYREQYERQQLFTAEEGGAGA
T2 sequence (O07549 whole entry C154A/C256A/C351A): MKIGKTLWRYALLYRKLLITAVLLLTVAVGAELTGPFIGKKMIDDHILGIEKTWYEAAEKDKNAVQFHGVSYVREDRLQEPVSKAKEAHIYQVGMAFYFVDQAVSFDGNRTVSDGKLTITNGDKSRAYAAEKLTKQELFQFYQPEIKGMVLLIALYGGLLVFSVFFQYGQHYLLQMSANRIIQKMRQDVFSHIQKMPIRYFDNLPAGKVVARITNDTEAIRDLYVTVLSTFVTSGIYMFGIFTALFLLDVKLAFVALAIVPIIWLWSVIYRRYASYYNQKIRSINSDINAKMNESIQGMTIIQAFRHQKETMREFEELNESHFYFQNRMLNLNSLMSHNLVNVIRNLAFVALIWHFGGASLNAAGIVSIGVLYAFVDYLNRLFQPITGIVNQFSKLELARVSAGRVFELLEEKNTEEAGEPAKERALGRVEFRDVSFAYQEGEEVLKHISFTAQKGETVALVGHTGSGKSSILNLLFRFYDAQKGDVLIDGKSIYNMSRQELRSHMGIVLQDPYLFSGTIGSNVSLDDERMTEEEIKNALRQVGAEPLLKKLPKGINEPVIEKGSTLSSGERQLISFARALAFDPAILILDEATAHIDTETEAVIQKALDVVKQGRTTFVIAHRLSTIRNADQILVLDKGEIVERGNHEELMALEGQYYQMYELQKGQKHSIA
Method: as §1, §2, §3, §4, §5

ABCB1 = system: ABCB1; set-up: method as in Siarheyeva et al., 2010; settings: ref Siarheyeva et al., 2010; cited from earlier work
TM287/288 [3] = molecular target: T1, TM287/288; assay: ATPase activity of detergent-purified wildtype TM287/288 (molybdate/malachite green phosphate detection); format: biochemical
TM287/288 [4] = assay: Hoechst 33342 stimulated ATPase activity of TM287/288 reconstituted into proteoliposomes; format: biochemical, Thermotoga maritima; settings: 50, 100 and 150 µM Hoechst 33342, 50°C, wildtype and spin-labeled mutants, maximal at 50 or 100 µM, bell-shaped
Method: To carry out DEER measurements in a lipidic environment (pair 131^TM288/248^TM288) as well as for the investigation of drug-stimulated ATPase activity of all pairs, spin-labeled TM287/288 was reconstituted into proteoliposomes consisting of E. coli polar lipids and egg phosphatidylcholine mixed at a ratio of 3:1 in 50 mM K-HEPES pH 7.0 as described elsewhere ([Hürlimann et al., 2016]; [Geertsma et al., 2008]). […] Reconstituted TM287/288_E517Q^TM288 was used for background subtraction.

[5] = TM287/288, 50°C, read-out: IC50
[6] = spin-labeled pair 50^TM287-271^TM287 WT
[7] = spin-labeled pair 131^TM288-248^TM288 WT
[8] = spin-labeled pair 460^TM287-363^TM288 WT
[9] = wildtype TM287/288, ATP-Mg + 2.5 mM EDTA, 50°C, detergent
[10] = wildtype TM287/288, ATP-Mg + 1 mM vanadate, 50°C, detergent

Structure (SMILES): Nc1ncnc2c1ncn2[C@@H]1O[C@H](COP(=O)(O)OP(=O)(O)O)[C@@H](O)[C@H]1O [ADP]
IC50 (TM287/288 [1]; TM287/288, 25°C, read-out: IC50): 505 ± 21 µM | Ki (TM287/288 [1]; TM287/288, 25°C, read-out: Ki): 3.28 ± 0.44 µM | IC50 (TM287/288 [1]; [5]): 681 ± 160 µM | Ki (TM287/288 [1]; TM287/288, 50°C, read-out: Ki): 10.4 ± 2.9 µM | IF frac (TM287/288 [2]; [6]): 90.1% | OF frac (TM287/288 [2]; [6]): 9.9% | IF frac (TM287/288 [2]; [7]): 100% | OF frac (TM287/288 [2]; [7]): 0% | IF frac (TM287/288 [2]; [8]): 82% | OF frac (TM287/288 [2]; [8]): 18%

Structure (SMILES): Nc1ncnc2c1ncn2[C@@H]1O[C@H](CO[P@](=O)(O)O[P@](=O)(O)O[P@@](=O)(O)S)[C@@H](O)[C@H]1O [ATPγS]
IC50 (TM287/288 [1]; IC50, TM287/288, 25°C): 31.4 ± 2.8 µM | IC50 (TM287/288 [1]; IC50, TM287/288, 50°C): 2.86 ± 0.08 µM | Ki (TM287/288 [1]; Ki, TM287/288, 25°C): 0.204 ± 0.032 µM | Ki (TM287/288 [1]; Ki, TM287/288, 50°C): 0.0439 ± 0.0062 µM | IC50 (BmrCD): 221 ± 24 µM | Ki (BmrCD): 26.7 ± 3.3 µM | rate of hydrolysis of ATPγS relative to that determined for ATP (ABCB1): 0.4% | IF frac (TM287/288 [2]; [6]): 45.2% | OF frac (TM287/288 [2]; [6]): 54.8% | IF frac (TM287/288 [2]; [7]): 72.9% | OF frac (TM287/288 [2]; [7]): 27.1% | IF frac (TM287/288 [2]; [8]): 63.7% | OF frac (TM287/288 [2]; [8]): 36.3%

Structure (SMILES): O=C(O)CN(CCN(CC(=O)O)CC(=O)O)CC(=O)O [EDTA]
ATPase activity in the presence of EDTA (TM287/288 [3]; 2.5 mM EDTA added to chelate Mg2+, wildtype TM287/288): did not observe any detectable ATPase activity | ATPase activity (TM287/288 [3]; [9]): <0.1 nmol Pi/min/mg protein | ATPase activity, % of wildtype (TM287/288 [3]; [9]): <0.005% | Turnover per transporter (TM287/288 [3]; [9]): <0.01 min⁻¹

stimulation of ATPase activity (TM287/288 [4]): robust ATPase stimulation
Structure (SMILES): CCOc1ccc(-c2nc3ccc(-c4nc5ccc(N6CCN(C)CC6)cc5[nH]4)cc3[nH]2)cc1 [Hoechst 33342]

Structure (SMILES): [Na+].[Na+].[Na+].[O]=[V]([O-])([O-])[O-] [Vanadate, sodium orthovanadate]
residual ATPase activity (TM287/288 [1]; 1 mM vanadate, 50°C, TM287/288): 8% | IC50 (TM287/288 [1]; [5]): 4.9 ± 0.29 µM | Ki (TM287/288 [1]; TM287/288, 50°C, read-out: Ki): 0.0751 ± 0.0114 µM | ATPase activity (TM287/288 [1]; [10]): 165 ± 20 nmol Pi/min/mg protein | ATPase activity, % of wildtype (TM287/288 [1]; [10]): 7.71% | Turnover per transporter (TM287/288 [1]; [10]): 21.9 min⁻¹ | turnover rate, ATP hydrolysis inhibited by vanadate (TM287/288 [1]; wildtype TM287/288, vanadate, 50°C): 22 ATP min^−1
